What was measured:
CCR1 = molecular target: T1, CCR1 (Homo sapiens, UniProt P32246); assay: Term leukocyte chemotaxis towards TL homogenized extracts (LMA), CCR1 inhibition; format: cell-based; conditions: increasing concentrations, FIG. 18
T1 construct: Whole blood is collected from a pregnant person into an EDTA-coated collection tube; endogenous in cells; host or cells: total peripheral leukocytes from pregnant women in term labour
T1 sequence (P32246 1-355): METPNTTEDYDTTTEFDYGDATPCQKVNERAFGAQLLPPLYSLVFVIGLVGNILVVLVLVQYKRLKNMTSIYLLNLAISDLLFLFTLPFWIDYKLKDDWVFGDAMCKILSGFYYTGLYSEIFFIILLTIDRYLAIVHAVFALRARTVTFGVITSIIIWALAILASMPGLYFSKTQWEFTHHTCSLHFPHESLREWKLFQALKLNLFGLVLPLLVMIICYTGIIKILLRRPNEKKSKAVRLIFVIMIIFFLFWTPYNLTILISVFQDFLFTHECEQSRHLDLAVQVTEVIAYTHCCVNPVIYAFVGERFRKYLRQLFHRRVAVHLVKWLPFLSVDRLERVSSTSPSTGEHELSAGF
Method: (§1) Chemotaxis Assay: Chemoattractants (50 μL) are loaded into the lower wels of a simple, resin 3D printed, 3-well chemotaxis chamber and a polycarbonate filter with 3 μm pores (Neuro Probe Inc., MD, USA) is placed on top of the wells. A silicone gasket with holes for each well is positioned on top of the filter and the upper chamber is lowered onto the silicone gasket, creating a tight seal. Total leukocytes (100 μL) are loaded into the wells of the upper chamber and the apparatus is incubated at 90 min at 37 C in 5% CO2. The apparatus is then disassembled and leukocytes that have migrated through the filter into the lower chamber are quantified using a hemocytometer, flow cytometry or fluorescence spectrometry.
(§2) We will use SB 225002 (CXCR2 antagonist) and J 113863 (CCR1 antagonist), which are commercially available from RND Systems for around USD 200 each. A time course and kinetics experiment will be performed for each antagonist to optimize incubation length and concentration. TL leukocytes (n=6) will be inhibited with each antagonist using these optimized parameters, and the resulting number of leukocytes that undergo chemotaxis to TL chemoattractant in our LMA will be compared to control (i.e. non-treated leukocytes).

CXCR2 = molecular target: T2, CXCR2 (Homo sapiens, UniProt P25025); assay: Term leukocyte chemotaxis towards TL homogenized extracts (LMA), CXCR2 inhibition; format: cell-based; conditions: increasing concentrations, FIG. 18
T2 construct: Whole blood is collected from a pregnant person into an EDTA-coated collection tube; endogenous in cells; host or cells: total peripheral leukocytes from pregnant women in term labour
T2 sequence (P25025 1-360): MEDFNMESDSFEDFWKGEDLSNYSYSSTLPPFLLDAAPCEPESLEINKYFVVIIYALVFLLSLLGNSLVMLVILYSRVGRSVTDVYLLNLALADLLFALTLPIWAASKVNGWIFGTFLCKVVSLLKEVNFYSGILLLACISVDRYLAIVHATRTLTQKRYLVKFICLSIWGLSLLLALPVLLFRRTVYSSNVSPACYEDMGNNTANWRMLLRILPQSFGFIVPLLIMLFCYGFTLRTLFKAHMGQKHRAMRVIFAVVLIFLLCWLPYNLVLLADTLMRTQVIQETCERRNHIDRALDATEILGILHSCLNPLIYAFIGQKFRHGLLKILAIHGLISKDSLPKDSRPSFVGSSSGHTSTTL
Method: as §1, §2

| SMILES | term leukocyte migration (CCR1) | term leukocyte migration (CXCR2) |
| --- | --- | --- |
| CC[N+]1(C/C2=C/CCCCCC2)CCC(NC(=O)C2c3cc(Cl)ccc3Oc3ccc(Cl)cc32)CC1.[I-] (centres unmarked) [J113863] | decrease leukocyte migration | – |
| O=C(Nc1ccc([N+](=O)[O-])cc1O)Nc1ccccc1Br [SB225002] | – | decrease leukocyte migration |
